# Test results: US6426229B1, “Chelating agent and detergent comprising the same” (Mitsubishi Rayon Co., Ltd., priority 1995, dated 2002)
# Assay: Compression strength (hardening property) of powder stored under load for 2 months
# Type: physicochemical
# Details: for Compression strength after stored for 2 months: 20-30° C., relative humidity 40-70%
# Method: Method for the Measurement of Compression Strength
# (1) A test sample (500 g) is put in a poly-ethylene bag of 20 cm×20 cm in a room at a temperature of 20-30° C. and a relative humidity of 40-70%. The powder is levelled to an area of 20 cm×20 cm and air is forced out of the bag, and, then, the bag is sealed. This bag is further put in a kraft bag and this kraft bag is sealed.
# (2) The kraft bag of (1) is placed horizontally on a flat plate and a plate is put thereon. […]
# (3) With keeping the temperature of 20-30° C. and the relative humidity of 40-70%, the test sample is taken out after lapse of 2 months from the starting of application of load. Several test pieces (4 cm long×4 cm broad×2 cm high) are cut out from the sample.
# [1] = Load 200 (table head [Kg]; text 200 g/cm^2)
# [2] = Load 300 (table head [Kg]; text 300 g/cm^2)
# [3] = Load 100 (table head [Kg]; text 100 g/cm^2)
# [4] = after 2 months under the load of 200 [g/cm^2]
Compound,Compression strength after stored for 2 months [3] [Kg/cm^2],further results
"O=C([O-])CC(NCCNC(CC(=O)[O-])C(=O)[O-])C(=O)[O-].[Na+].[Na+].[Na+].[Na+] (centres unmarked) [Example 46, tetrasodium ethylenediaminedisuccinate]",–,Compression strength after stored for 2 months [1]: 1.1 Kg/cm^2
"O=C(O)CC(NCCCNC(CC(=O)O)C(=O)O)C(=O)O (centres unmarked) [Example 73, 1,3-propanediaminedisuccinic acid]",–,Compression strength after stored for 2 months [2]: 1.1 Kg/cm^2
"O=C([O-])CC(NCCCNC(CC(=O)[O-])C(=O)[O-])C(=O)[O-].[Na+].[Na+].[Ni+2] [Example 84, nickel disodium (S,S)-1,3-propanediaminedisuccinate]",–,Compression strength after stored for 2 months [1]: 1.0 Kg/cm^2
"O=C([O-])CC(NCCCNC(CC(=O)[O-])C(=O)[O-])C(=O)[O-].[Na+].[Na+].[Na+].[Na+] (centres unmarked) [compound 18, tetrasodium 1,3-propanediaminedisuccinate, reference compound]",3.0,–
"O=C([O-])CN(CCS(=O)(=O)[O-])CC(=O)[O-].[Na+].[Na+].[Na+] [Example 25, trisodium salt of taurine-N,N-diacetic acid]",–,Compression strength after stored for 2 months [1]: 1.1 Kg/cm^2
"O=C([O-])C[C@@H](C(=O)[O-])N(CC(=O)[O-])CC(=O)[O-].[Na+].[Na+].[Na+].[Na+] [Example 11, tetrasodium salt of (S)-aspartic acid-N,N-diacetic acid]",–,Compression strength after stored for 2 months [2]: 0.8 Kg/cm^2
"O=C(O)C[C@H](NCCN[C@@H](CC(=O)O)C(=O)O)C(=O)O [compound 22, (S,S)-ethylenediaminedisuccinic acid, reference compound]",2.5,–
"O=C(O)C[C@H](NCCCN[C@@H](CC(=O)O)C(=O)O)C(=O)O [Example 74, (S,S)-1,3-propanediaminedisuccinic acid]",–,Compression strength after stored for 2 months [2]: 1.2 Kg/cm^2
"O=C([O-])CC(NCCNC(CC(=O)[O-])C(=O)[O-])C(=O)[O-].[Na+].[Na+].[Na+].[Na+] (centres unmarked) [compound 16, tetrasodium ethylenediaminedisuccinate, reference compound]",2.8,–
"O=C([O-])C[C@H](NCCN[C@@H](CC(=O)[O-])C(=O)[O-])C(=O)[O-].[Na+].[Na+].[Na+].[Na+] [Example 52, tetrasodium (S,S)-ethylenediaminedisuccinate]",1.0,–
"O=C(O)C[C@H](NCCN[C@@H](CC(=O)O)C(=O)O)C(=O)O [Example 62, (S,S)-ethylenediaminedisuccinic acid]",–,Compression strength after stored for 2 months [1]: 1.0 Kg/cm^2
"O=C(O)CCN[C@@H](CC(=O)O)C(=O)O [Example 14, (S)-aspartic acid-N-monopropionic acid]",–,Compression strength after stored for 2 months [1]: 0.6 Kg/cm^2
"O=C([O-])CN(CC(=O)[O-])c1ccccc1C(=O)[O-].[Na+].[Na+].[Na+] [Example 30, trisodium salt of anthranilic acid-N,N-diacetic acid]",1.2,–
"O=C([O-])CCN[C@@H](CC(=O)[O-])C(=O)[O-].[Na+].[Na+].[Na+] [compound 2, trisodium salt of (S)-aspartic acid-N-monopropionic acid, reference compound]",3.0,–
"O=C([O-])CC(NCCNC(CC(=O)[O-])C(=O)[O-])C(=O)[O-].[Na+].[Na+].[Na+].[Na+] (centres unmarked) [Example 51, tetrasodium ethylenediaminedisuccinate]",1.2,–
"O=C(O)CN[C@@H](CC(=O)O)C(=O)O [Example 17, (S)-aspartic acid-N-monoacetic acid]",0.9,–

Compound,Compression strength after stored for 2 months [3] [Kg/cm^2],further results
"O=C(O)CN[C@@H](CC(=O)O)C(=O)O [Example 13, (S)-aspartic acid-N-monoacetic acid]",–,Compression strength after stored for 2 months [1]: 1.1 Kg/cm^2
"O=C([O-])CC(NCCCNC(CC(=O)[O-])C(=O)[O-])C(=O)[O-].[Na+].[Na+].[Na+].[Na+] (centres unmarked) [Example 48, tetrasodium 1,3-propanediaminedisuccinate]",–,Compression strength after stored for 2 months [1]: 1.0 Kg/cm^2
"O=C(O)CCN[C@@H](CC(=O)O)C(=O)O [compound 6, (S)-aspartic acid-N-monopropionic acid, reference compound]",2.5,–
"O=C([O-])C[C@H](NCCCN[C@@H](CC(=O)[O-])C(=O)[O-])C(=O)[O-].[Na+].[Na+].[Na+].[Na+] [Example 54, tetrasodium (S,S)-1,3-propanediaminedisuccinate]",0.9,–
"O=C(O)C[C@H](NCC(O)CN[C@@H](CC(=O)O)C(=O)O)C(=O)O [Example 70, (S,S)-2-hydroxy-1,3-propanediaminedisuccinic acid]",0.8,–
"O=C([O-])CC(NCCNC(CC(=O)[O-])C(=O)[O-])C(=O)[O-].[Na+].[Na+].[Na+].[Na+] (centres unmarked) [Example 56, tetrasodium ethylenediaminedisuccinate]",–,Compression strength after stored for 2 months [2]: 0.8 Kg/cm^2
"O=C([O-])C[C@H](NCCN[C@@H](CC(=O)[O-])C(=O)[O-])C(=O)[O-].[Cu+2].[Na+].[Na+] [compound 27, copper disodium (S,S)-ethylenediaminedisuccinate, reference compound]",2.8,–
"CN(CC(=O)[O-])CC(=O)[O-].[Na+].[Na+] [Example 26, disodium N-methyliminodiacetate]",–,Compression strength after stored for 2 months [1]: 1.2 Kg/cm^2
"O=C([O-])CN[C@@H](CC(=O)[O-])C(=O)[O-].[Na+].[Na+].[Na+] [Example 1, trisodium salt of (S)-aspartic acid-N-monoacetic acid]",–,compression strength of the test piece [4]: 1.2 kg/cm^2; state of the test piece after storage [4]: it could be disintegrated without any special grinding treatment
"O=C([O-])C[C@H](NCCCN[C@@H](CC(=O)[O-])C(=O)[O-])C(=O)[O-].[Na+].[Na+].[Na+].[Na+] [compound 19, tetrasodium (S,S)-1,3-propanediaminedisuccinate, reference compound]",2.9,–
"CN(CC(=O)[O-])CC(=O)[O-].[Na+].[Na+] [compound 10, disodium N-methyliminodiacetate, reference compound]",2.6,–
"O=C(O)CN(CC(=O)O)c1ccccc1C(=O)O [compound 14, anthranilic acid-N,N-diacetic acid, reference compound]",2.5,–
"O=C([O-])C[C@H](NCC(O)CN[C@@H](CC(=O)[O-])C(=O)[O-])C(=O)[O-].[Na+].[Na+].[Na+].[Na+] [compound 20, tetrasodium (S,S)-2-hydroxy-1,3-propanediaminedisuccinate, reference compound]",2.7,–
"O=C(O)C[C@H](NCCCN[C@@H](CC(=O)O)C(=O)O)C(=O)O [Example 69, (S,S)-1,3-propanediaminedisuccinic acid]",1.0,–
"O=C([O-])CC(NCCNC(CC(=O)[O-])C(=O)[O-])C(=O)[O-].[Cu+2].[Na+].[Na+] (centres unmarked) [Example 77, copper disodium ethylenediaminedisuccinate]",–,Compression strength after stored for 2 months [1]: 1.2 Kg/cm^2
